Test results published in patent publication US20100074939A1 (OsteoGeneX Inc., priority 2008, published 2010).
Structures can show the parent of a compound that is named as a salt.

Columns and labels:
[1] = tested on: mouse; test: Bone formation in treated vs control mice by micro-CT (Example 1); format: in vivo; details: test vs control solution, after complete dosing schedule
Description: Compounds useful in the methods of the present invention can be identified via a variety of methods known to one of skill in the art. Several exemplary methods for identifying such antagonists are described herein, including cell-based and in vitro techniques (Journal of Bone and Mineral Research 2006, 21(11), 1738-1749). A general method of identifying SOST antagonists involves evaluating the effects of antagonist candidates on bone formation under controlled conditions. Preferably bone formation is determined using micro-CT techniques on live animals. Preferred animals include rodents, more preferred are primates. Femur, tibia and vertebrae bones are particularly useful subjects for such study.
Briefly, the test animal is treated with a predetermined dose of a SOST antagonist candidate. […]
Once the dosing schedule has been completed, both test and control animals are examined to determine the quantity of bone formation present. […] Where necessary, levels of bone formation can be calculated by determining the volume of bone formation present in each animal. […]
For example, the mouse test animal is treated with a predetermined dose of a SOST antagonist candidate for a complete dosing schedule. […] Once the dosing schedule has been completed, both test and control animals are examined with sacrifice using micro-CT to determine the quantity of bone formation present.

[2] = tested on: C57BL/6 mice; test: Lumbar vertebra L5 bone volume by uCT, 30-day i.p. study; format: in vivo, mouse; details: measured by uCT; male C57BL/6 mice, daily i.p. 30 days; dose not stated
Experimental: (§1) Four month old male C57BL/6 mice were treated daily with saline vehicle or the sclerostin inhibitor of harmine hydrochloride at 20 (“L”), 40 (“M”) or 90 (“H”) mg/kg (via i.p) for 30 days. Study endpoints included measurement of femur bone volume by pQCT analysis (FIG. 2), and a biochemical marker of bone formation, osteocalcin, measured by EIA Elisa (FIG. 3). […] Lumbar vertebra L5 bone volume increased 2% over saline baseline, as measured by uCT, and 73%, as measured by DEXA Piximus.

[3] = tested on: C57BL/6 mice; test: Lumbar vertebra L5 bone volume by DEXA Piximus, 30-day i.p. study; format: in vivo, mouse; details: measured by DEXA Piximus; male C57BL/6 mice, daily i.p. 30 days; dose not stated
Experimental: as §1

[4] = tested on: C57BL/6 mice; test: Serum osteocalcin bone formation marker by EIA Elisa, 30-day i.p. study (FIG. 3); format: in vivo, mouse; details: male C57BL/6 mice, 40 mg/kg daily i.p. 30 days
Experimental: as §1

[5] = tested on: C57BL/6 mice; test: Femur bone density/volume by pQCT, 30-day i.p. study (FIG. 2); format: in vivo, mouse; details: male C57BL/6 mice, daily i.p. 30 days, 40 mg/kg
Experimental: as §1

[6] = tested on: Wnt pathway; test: Wnt pathway modulation to promote bone growth (FIG. 1); details: doses of 2.5 ng (low), 60 ng (medium), 125 ng (high)
Experimental: For example, the mouse test animal is treated with a predetermined dose of a SOST antagonist candidate for a complete dosing schedule. A control mouse is treated with a control solution, preferably a non-irritating buffer solution or other carrier. Once the dosing schedule has been completed, both test and control animals are examined with sacrifice using micro-CT to determine the quantity of bone formation present.

## COc1ccc2c(c1)[nH]c1c(C)nccc12 [harmine hydrochloride]
[1]
  bone growth (quantity of bone formation by micro-CT): promoting bone growth
[2]
  Lumbar vertebra L5 bone volume increase over saline baseline: 2%
[3]
  Lumbar vertebra L5 bone volume increase over saline baseline: 73%
[4]
  percent increase in serum osteocalcin bone formation marker over saline controls: 65%
[5]
  increase over baseline for femur bone density: 13%
[6]
  modulation of the Wnt pathway to promote bone growth: modulating the Wnt pathway to promote bone growth
